Test results as given in ChEMBL document CHEMBL5653615 (J Biol Chem, 2013).
Values belong to the compound of their own block, whether it stands above or below them. Active and inactive are the calls of the source. The calls are words filed in the database; no cut-off is given here.

Key:
[1] = molecular target: T1, Ephrin type-B receptor 3 (Homo sapiens) (UniProt P54753); experiment: Inhibition of human EPHB3 at 18.6 nM by HotSpot assay relative to control
T1 sequence (whole entry): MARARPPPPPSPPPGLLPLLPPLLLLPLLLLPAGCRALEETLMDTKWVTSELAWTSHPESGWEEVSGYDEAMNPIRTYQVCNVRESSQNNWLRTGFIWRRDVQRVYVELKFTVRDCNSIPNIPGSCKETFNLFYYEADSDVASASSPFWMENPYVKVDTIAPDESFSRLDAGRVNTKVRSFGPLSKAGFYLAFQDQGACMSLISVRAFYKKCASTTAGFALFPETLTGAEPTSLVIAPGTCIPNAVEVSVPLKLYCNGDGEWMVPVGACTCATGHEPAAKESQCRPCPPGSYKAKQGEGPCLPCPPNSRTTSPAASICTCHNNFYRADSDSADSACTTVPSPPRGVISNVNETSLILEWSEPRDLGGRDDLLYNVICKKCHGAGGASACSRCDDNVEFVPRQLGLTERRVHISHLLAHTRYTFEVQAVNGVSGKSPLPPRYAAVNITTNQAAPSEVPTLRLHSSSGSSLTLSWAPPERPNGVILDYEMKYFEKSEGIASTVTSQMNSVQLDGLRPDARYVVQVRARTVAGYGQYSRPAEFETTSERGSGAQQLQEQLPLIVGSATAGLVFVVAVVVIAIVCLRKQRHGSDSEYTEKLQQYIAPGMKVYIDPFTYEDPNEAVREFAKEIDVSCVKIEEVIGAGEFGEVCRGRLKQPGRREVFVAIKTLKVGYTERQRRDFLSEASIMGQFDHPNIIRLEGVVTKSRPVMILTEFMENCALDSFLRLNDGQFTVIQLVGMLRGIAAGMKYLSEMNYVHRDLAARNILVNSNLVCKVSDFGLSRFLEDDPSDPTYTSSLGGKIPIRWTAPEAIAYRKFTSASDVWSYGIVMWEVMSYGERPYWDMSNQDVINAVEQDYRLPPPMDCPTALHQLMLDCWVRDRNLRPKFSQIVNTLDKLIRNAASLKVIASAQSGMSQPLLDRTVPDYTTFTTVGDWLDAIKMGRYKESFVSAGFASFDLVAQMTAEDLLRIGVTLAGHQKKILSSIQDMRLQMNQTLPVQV

[2] = molecular target: T2, NUAK family SNF1-like kinase 1 (Homo sapiens) (UniProt O60285); experiment: Inhibition of human ARK5 at 18.6 nM by HotSpot assay relative to control
T2 sequence (whole entry): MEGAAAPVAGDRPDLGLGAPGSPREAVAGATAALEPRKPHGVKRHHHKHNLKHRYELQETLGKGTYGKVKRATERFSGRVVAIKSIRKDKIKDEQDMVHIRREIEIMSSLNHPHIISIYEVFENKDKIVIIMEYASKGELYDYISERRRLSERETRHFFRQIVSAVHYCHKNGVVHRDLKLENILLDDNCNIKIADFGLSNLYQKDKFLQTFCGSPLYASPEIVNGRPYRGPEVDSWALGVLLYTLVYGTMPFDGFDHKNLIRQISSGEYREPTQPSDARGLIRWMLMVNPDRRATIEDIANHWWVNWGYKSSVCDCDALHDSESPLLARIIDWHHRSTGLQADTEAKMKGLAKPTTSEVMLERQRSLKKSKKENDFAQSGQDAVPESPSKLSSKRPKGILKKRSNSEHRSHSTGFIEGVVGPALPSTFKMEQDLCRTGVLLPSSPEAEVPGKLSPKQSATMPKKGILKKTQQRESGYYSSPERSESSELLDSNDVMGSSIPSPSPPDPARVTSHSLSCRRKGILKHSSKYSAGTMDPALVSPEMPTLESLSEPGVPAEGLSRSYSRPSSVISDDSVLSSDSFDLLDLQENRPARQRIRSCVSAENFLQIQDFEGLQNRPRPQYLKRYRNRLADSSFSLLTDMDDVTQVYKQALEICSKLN

[3] = molecular target: Serine/threonine-protein kinase N1 (Homo sapiens) (UniProt Q16512); experiment: Inhibition of human PRK1 at 18.6 nM by HotSpot assay relative to control
[4] = molecular target: Hepatocyte growth factor receptor (Homo sapiens) (UniProt P08581); experiment: Inhibition of human c-MET at 18.6 nM by HotSpot assay relative to control
[5] = Inhibition of tri-phosphorylated human Insulin receptor (978 to 1283 residues) C981S mutant kinase domain expressed in baculovirus infected Sf9 cells incubated for 1 hr by [gamma-33P]ATP assay
[6] = molecular target: Serine/threonine-protein kinase pim-2 (Homo sapiens) (UniProt Q9P1W9); experiment: Inhibition of human PIM2 at 1.82 nM by HotSpot assay relative to control
[7] = molecular target: Vascular endothelial growth factor receptor 2 (Homo sapiens) (UniProt P35968); experiment: Inhibition of human KDR at 1.82 nM by HotSpot assay relative to control
[8] = molecular target: T3, MAP/microtubule affinity-regulating kinase 4 (Homo sapiens) (UniProt Q96L34); experiment: Inhibition of human MARK4 at 1.82 nM by HotSpot assay relative to control
T3 sequence (whole entry): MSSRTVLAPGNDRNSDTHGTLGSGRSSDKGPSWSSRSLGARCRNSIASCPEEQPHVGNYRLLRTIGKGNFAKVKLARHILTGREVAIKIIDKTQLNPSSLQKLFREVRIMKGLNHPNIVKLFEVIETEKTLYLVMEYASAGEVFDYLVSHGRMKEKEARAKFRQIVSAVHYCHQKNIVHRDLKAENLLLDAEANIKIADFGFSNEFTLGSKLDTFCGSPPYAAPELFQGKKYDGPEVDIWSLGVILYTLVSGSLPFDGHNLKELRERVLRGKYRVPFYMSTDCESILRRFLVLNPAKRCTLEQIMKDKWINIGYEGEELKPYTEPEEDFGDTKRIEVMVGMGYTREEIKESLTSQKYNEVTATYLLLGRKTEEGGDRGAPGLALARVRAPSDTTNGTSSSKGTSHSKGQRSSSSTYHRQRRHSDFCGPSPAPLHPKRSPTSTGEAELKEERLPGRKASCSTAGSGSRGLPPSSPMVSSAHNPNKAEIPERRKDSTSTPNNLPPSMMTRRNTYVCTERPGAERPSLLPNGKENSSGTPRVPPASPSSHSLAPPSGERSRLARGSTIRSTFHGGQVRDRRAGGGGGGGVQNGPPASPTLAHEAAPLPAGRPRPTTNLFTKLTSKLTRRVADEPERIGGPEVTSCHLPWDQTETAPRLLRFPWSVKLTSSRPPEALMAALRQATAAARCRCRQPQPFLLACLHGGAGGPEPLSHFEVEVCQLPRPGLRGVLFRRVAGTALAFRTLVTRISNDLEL

[9] = molecular target: Serine/threonine-protein kinase Nek4 (Homo sapiens) (UniProt P51957); experiment: Inhibition of human NEK4 at 1.82 nM by HotSpot assay relative to control
[10] = molecular target: Protein kinase C beta type (Homo sapiens) (UniProt P05771); experiment: Inhibition of human PKCb1 at 1.82 nM by HotSpot assay relative to control
Sequence of Protein kinase C beta type (Homo sapiens) (P05771 2-671 limits assumed): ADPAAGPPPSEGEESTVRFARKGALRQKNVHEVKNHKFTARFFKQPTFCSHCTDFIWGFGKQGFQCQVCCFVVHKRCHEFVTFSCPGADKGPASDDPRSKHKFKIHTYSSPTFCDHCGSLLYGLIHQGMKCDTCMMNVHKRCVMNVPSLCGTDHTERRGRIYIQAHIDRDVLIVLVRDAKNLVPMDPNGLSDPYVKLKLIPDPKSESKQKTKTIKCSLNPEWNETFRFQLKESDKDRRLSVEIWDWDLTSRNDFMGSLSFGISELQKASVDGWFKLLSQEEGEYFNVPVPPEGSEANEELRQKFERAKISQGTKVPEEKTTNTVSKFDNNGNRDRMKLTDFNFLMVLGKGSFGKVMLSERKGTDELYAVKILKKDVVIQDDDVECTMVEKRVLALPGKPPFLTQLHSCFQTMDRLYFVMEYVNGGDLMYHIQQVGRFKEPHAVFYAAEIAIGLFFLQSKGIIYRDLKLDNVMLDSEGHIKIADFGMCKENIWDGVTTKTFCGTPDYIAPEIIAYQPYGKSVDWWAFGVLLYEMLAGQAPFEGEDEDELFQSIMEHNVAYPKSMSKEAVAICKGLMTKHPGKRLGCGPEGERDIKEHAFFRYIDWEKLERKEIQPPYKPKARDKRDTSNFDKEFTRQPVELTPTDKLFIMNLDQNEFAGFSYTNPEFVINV

Sequence of Vascular endothelial growth factor receptor 2 (Homo sapiens) (P35968 whole entry): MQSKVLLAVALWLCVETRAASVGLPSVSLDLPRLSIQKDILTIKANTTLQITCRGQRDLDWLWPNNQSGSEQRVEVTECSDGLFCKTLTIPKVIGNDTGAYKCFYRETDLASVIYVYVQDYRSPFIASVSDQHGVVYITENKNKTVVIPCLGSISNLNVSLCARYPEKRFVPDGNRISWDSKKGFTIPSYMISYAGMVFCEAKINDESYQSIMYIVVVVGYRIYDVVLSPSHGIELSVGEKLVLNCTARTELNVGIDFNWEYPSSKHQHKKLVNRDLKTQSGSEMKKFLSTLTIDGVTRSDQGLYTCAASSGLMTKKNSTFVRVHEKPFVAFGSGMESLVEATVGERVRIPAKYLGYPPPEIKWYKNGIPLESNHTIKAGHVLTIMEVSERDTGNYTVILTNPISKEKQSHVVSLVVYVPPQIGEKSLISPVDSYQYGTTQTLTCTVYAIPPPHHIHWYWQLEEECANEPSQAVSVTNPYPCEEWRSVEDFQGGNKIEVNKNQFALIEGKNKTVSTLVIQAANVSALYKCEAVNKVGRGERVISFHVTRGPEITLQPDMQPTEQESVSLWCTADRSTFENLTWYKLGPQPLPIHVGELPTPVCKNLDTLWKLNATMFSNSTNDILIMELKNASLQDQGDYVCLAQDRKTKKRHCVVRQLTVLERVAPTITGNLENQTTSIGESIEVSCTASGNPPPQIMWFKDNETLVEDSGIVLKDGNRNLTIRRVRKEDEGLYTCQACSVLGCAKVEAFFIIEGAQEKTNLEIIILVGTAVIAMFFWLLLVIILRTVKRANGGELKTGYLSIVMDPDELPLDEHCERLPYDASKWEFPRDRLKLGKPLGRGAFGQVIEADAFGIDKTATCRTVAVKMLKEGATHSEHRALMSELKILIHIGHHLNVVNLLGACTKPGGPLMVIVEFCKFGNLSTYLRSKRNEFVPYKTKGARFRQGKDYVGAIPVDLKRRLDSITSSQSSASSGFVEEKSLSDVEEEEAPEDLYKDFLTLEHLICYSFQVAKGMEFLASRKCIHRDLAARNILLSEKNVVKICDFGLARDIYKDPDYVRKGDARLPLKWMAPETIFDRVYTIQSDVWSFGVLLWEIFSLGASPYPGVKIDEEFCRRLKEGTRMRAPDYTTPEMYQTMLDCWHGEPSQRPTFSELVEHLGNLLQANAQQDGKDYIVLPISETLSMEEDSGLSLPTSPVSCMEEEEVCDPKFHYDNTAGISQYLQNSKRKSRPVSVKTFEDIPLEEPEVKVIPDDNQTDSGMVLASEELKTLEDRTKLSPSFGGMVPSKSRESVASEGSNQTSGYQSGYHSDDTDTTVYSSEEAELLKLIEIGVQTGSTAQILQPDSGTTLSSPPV
Sequence of Serine/threonine-protein kinase Nek4 (Homo sapiens) (P51957 whole entry, looked up): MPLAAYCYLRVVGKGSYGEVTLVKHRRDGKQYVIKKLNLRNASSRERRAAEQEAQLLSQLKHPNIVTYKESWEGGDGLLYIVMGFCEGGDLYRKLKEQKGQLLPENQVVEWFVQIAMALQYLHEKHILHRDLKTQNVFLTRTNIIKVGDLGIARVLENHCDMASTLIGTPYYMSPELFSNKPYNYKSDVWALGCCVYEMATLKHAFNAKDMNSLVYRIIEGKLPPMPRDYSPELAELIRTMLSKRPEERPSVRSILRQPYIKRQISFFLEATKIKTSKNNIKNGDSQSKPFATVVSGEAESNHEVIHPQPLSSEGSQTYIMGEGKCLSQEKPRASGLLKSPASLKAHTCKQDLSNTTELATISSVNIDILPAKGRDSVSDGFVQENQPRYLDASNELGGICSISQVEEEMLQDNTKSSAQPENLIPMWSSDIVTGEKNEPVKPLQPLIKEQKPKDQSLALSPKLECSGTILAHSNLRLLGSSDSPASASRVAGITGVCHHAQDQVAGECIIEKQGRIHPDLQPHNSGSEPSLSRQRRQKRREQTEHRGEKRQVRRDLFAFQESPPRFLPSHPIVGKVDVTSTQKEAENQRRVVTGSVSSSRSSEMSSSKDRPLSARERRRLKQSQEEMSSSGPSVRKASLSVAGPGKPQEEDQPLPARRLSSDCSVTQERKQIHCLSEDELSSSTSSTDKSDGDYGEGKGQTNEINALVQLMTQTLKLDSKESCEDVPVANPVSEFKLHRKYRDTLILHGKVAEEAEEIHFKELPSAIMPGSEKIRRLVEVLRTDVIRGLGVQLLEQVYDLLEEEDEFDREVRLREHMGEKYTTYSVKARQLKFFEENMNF
Sequence of Serine/threonine-protein kinase pim-2 (Homo sapiens) (Q9P1W9 whole entry, looked up): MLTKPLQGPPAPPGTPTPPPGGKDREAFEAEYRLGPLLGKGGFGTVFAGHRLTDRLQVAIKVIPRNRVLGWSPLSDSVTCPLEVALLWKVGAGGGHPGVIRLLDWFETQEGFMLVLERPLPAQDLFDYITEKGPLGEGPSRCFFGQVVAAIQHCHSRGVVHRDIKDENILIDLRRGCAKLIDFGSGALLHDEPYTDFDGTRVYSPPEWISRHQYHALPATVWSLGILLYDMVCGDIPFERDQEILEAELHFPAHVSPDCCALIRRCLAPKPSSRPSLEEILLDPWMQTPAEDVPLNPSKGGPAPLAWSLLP
Sequence of Serine/threonine-protein kinase N1 (Homo sapiens) (Q16512 2-942 limits assumed): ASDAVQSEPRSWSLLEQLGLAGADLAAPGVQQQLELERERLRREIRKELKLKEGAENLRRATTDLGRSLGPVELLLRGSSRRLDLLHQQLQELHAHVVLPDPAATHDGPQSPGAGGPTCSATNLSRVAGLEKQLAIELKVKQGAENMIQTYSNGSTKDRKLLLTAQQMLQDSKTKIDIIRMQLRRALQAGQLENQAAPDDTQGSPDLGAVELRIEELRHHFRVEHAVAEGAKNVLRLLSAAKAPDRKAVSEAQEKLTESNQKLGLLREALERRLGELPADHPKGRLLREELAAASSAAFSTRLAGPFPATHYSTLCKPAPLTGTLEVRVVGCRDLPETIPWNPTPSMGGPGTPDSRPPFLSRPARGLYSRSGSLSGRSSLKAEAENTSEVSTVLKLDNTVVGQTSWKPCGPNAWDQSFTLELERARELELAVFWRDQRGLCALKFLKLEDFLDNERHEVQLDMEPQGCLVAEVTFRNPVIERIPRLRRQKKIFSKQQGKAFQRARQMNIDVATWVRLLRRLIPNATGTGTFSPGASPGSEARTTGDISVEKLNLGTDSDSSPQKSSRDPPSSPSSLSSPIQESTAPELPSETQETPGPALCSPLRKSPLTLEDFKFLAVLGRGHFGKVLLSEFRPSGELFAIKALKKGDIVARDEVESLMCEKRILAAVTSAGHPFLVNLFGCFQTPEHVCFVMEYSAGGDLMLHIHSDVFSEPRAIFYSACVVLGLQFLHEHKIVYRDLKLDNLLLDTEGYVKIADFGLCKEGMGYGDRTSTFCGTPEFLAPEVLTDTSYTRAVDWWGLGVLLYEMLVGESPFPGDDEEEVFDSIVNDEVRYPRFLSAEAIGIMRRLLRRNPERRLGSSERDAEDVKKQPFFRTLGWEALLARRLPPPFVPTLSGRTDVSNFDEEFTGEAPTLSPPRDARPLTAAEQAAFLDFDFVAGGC

inhibition [1]: -2.53%
inhibition [2]: -1.57%
inhibition [3]: -7.69%
inhibition [4]: -4.38%
SMILES: C[C@]1(O)C[C@@H](c2nc(-c3ccc4ccc(-c5ccccc5)nc4c3)c3c(N)nccn32)C1

SMILES: Oc1n[nH]c2nnc(-c3c(-c4ccccc4)nn4ccccc34)cc12
inhibition [5]: inactive

inhibition [6]: -3.22%
inhibition [7]: 3.67%
inhibition [8]: 2.64%
inhibition [9]: -3.35%
inhibition [10]: -8.94%
SMILES: C[C@@]1(C(=O)Nc2ccc(F)nc2)CCCN1c1nc(Nc2cc(C3CC3)n[nH]2)c2cccn2n1
